Data on one compound can be found in US4866039A, “Peptides containing the 18 to 23 residues of vasoactive intestinal peptide, and analogues” (Beecham Group p.l.c., priority 1985, dated 1989).

For the test, the system named is rat proximal duodenum. The test can be described thus: acid disposal capacity of the rat proximal duodenum (anti-ulcer activity). The class given is in vivo. The conditions noted are these: anaesthetized male Wistar rats; input pH 2.5, second pass; 150nmol/kg/h i.v. infusion; significance P<0.05. The method, then: Method for estimating the acid disposal capacity of the rat proximal duodenum
Male Wistar rats, 180-250g bodyweight, fasted overnight, are anaesthetized with urethane (150mg/100g bodyweight i.m.). The trachea is cannulated, and a gastric cannula, 0.5cm i.d., 3cm long, is inserted into the non-glandular forestomach via a mid-line abdominal incision. The intragastric cannula is exteriorized via a stab wound in the body wall. A triple lumen catheter, 0.3cm o.d., is passed via the gastric cannula through the pylorus. The duodenum is ligated 1cm below the pylorus, and the pylorus ligated around the cannula, thus creating a 1cm proximal duodenal pouch excluding pancreatic and biliary secretions. The two ligatures enclosing the duodenal pouch are placed so as to avoid occluding the blood supply to the duodenal segment. Gastric secretions are allowed to drain freely from the gastric cannula. Compounds are administered dissolved in 0.9% sodium chloride (saline) as a 1.2 ml/h infusion via a catheter inserted in a jugular vein.
The triple lumen catheter is connected as follows. […]
Lumen 2 collects the perfusate and delivers it to a flow cell containing a pH microelectrode. Outflow pH is recorded throughout the experiment. […]
A group size of 6 animals or larger is used and the effect of compounds on the output pH compared to control data determined. […]

Residues, ends and D or L forms follow the SMILES beside them.

Regarding `CC(C)C[C@H](NC(=O)[C@H](Cc1ccc(O)cc1)NC(=O)[C@H](CCCCN)NC(=O)[C@H](CCCCN)NC(=O)[C@@H](NC(=O)[C@H](C)N)C(C)C)C(N)=O` [Example 1, H-Ala-Val-Lys-Lys-Tyr-Leu-NH2] (H-AVKKYL-NH2), the “acid disposal (output pH compared to control)” value is “significant increase in acid disposal”.
